Patent publication US10287298B2, “Nitrogen-containing analogs of salinomycin, synthesis and use against cancer stem cells and malaria” (Centre National de la Recherche Scientifique (CNRS), priority 2014, dated 2019)

What was measured:
HMLER CD24+ cells = assay: Cell viability assay (CellTiter-Blue), IC50 assessment; format: cell-based; conditions: Homo sapiens, read-out: IC50 CD24+
Method: (§1) FIG. 1 represents viability of HMLER CD24− cells (full line) and HMLER CD24+ cells (dotted line) at different concentration of salinomycine (1A), AM5 […] or AM13 (1D).
(§2) Cell viability assay was carried out by plating 1000 cells per well in 96-well plates. NAC (2 mM, A9165 Sigma) or DFO (1 mM) were pretreated 2 hours prior to the compound treatment. CellTiter-Blue® Reagent (Promega; G3582) (20 μl/well) was added after 24, 48, or 72 hours treatment and cells were incubated for 1 hour before recording fluorescence (560(20)Ex/590(10)Em) using a Perkin Elmer Wallac 1420 Victor2 Microplate Reader.

HMLER CD24− cells [1] = assay: as above; format: cell-based, Human
Method: as §1, §2

HMLER CD24low cells = assay: Reactive Oxygen Species (ROS) levels by flow cytometry (CM-H2DCF-DA); format: cell-based, Human; conditions: 30 nM, 500 nM or 1 μM, 48 h
Method: Reactive Oxygen Species (ROS) levels were measured by flow cytometry or by confocal scanning immunofluorescence microscopy using CM-H2DCF-DA (C6827, invitrogen). Briefly, U2OS and HMLER CD24low cells were treated as indicated in FIG. 11 (30 nM, 500 nM or 1 μM of salinomycine, AM5 or AM23 or untreated during 48 h). Then, these cells were trypsined and incubated with 5 μM CM-H2DCF-DA at 37° C. for 40 min, washed once with PBS and were counterstained with DAPI (0.5 μg/ml) to exclude non-viable cells. The mean fluorescence intensity was determined as ROS production by flow cytometry with LSRFortessa™ cytometer (BD Bioscience, San Jose, Calif.). For immunofluorescence microscopy analysis, cells were seeded on coverslips and were treated with salinomycine derivatives (injection in culture medium then treatment during 24 h, 48 h and 72 h). LysoTracker® Red DND-99 (L-7528, Life technologies) was used to visualize lysosomes. Then, cells were fixed with 4% PFA/PBS. DAPI was used to visualize nuclear DNA. Cell images were obtained using a Deltavision real-time microscope (Applied Precision) or an ApoTome.2 microscope (Zeiss). ImageJ was used for further image processing.
FACS analysis of ROS in cells treated for 48 h is represented in FIG. 17.

MDA-MB-231 cells = assay: Dead cells by DIOC6(3)/DAPI test with cathepsine B inhibitor; format: cell-based, Human; conditions: 500 nM; COA74-Me 30 μM; 48 h, 96 h, 108 h
Method: From the treatment, dead cells were assessed by DIOC6(3)/DAPI test and analyzed by flow cytometry.

MDA-MB-361 = assay: Cell death IC50, Annexin V-FITC/PI flow cytometry; format: cell-based; conditions: Homo sapiens, MDA-MB-361, 96 h, read-out: IC50 MDA-MB-361
Method: (§3) The cells were seeded in a 6-well plate at density 5.105 cells/well and cultured overnight. The cells were then treated with various concentration (15, 30, 100, 500, 1000 and 10.000 nM) of salinomycine, AM5 and AM23 for 72 h, 96 h and 108 h. After treatment, cell death was quantified using Annexin V-FITC/Propidium Iodide (PI) assay according to the manufacturer's protocol (FITC Annexin V Apoptosis Detection Kit II, 556570, BD Pharmingen™) and analyzed by a LSRFortessa™ flow cytometer (BD Bioscience, San Jose, Calif.). The data were processed using Cell Quest software (BD Biosciences). Dose-response cell death curves were determined for indicated time.
(§4) For tumor cells, the cells are classified in function of their sensitivity of drugs. Here, the most sensitive cells are incubated for 72 h, the middle sensitive cells for 96 h and the less sensitive or resistant cells are incubated for 108 h with drug at several concentrations.
(§5) Concentrations of 30 nM, 500 nm and 1 μM were used for determining the IC50 of drugs.
(§6) Intervals][…]] mean that IC50 is included in this interval with exclusion of the valor 30 nM.

HMLER CD24low = assay: Cell death IC50, Annexin V-FITC/PI flow cytometry; format: cell-based; conditions: Homo sapiens, 72 h, read-out: IC50 HMLER CD24low
Method: as §3, §4, §5, §6

MDA-MB-231 = assay: Cell death IC50, Annexin V-FITC/PI flow cytometry; format: cell-based; conditions: Homo sapiens, MDA-MB-231, 96 h, read-out: IC50 MDA-MB-231
Method: as §3, §4, §5, §6

MDA-MB-134 = assay: Cell death IC50, Annexin V-FITC/PI flow cytometry; format: cell-based; conditions: Homo sapiens, 96 h, read-out: IC50 MDA-MB-134
Method: as §3, §4, §5, §6

HMLER shECAD = assay: Cell death IC50, Annexin V-FITC/PI flow cytometry; format: cell-based; conditions: Homo sapiens, 72 h, read-out: IC50 HMLER shECAD
Method: as §3, §4, §5, §6

T47D = assay: Cell death IC50, Annexin V-FITC/PI flow cytometry; format: cell-based; conditions: Homo sapiens, Resistant (108 h)
Method: as §3, §4, §5, §6

HMLE W2 = assay: Cell death IC50, Annexin V-FITC/PI flow cytometry; format: cell-based; conditions: Homo sapiens, read-out: IC50 HMLE W2
Method: as §3, §4, §5, §6

HMLER ID2 = assay: Cell death IC50, Annexin V-FITC/PI flow cytometry; format: cell-based; conditions: Homo sapiens, 72 h, read-out: IC50 HMLER ID2
Method: as §3, §4, §5, §6

BT20 = assay: Cell death IC50, Annexin V-FITC/PI flow cytometry; format: cell-based; conditions: Homo sapiens, BT-20, 108 h, read-out: IC50 BT20
Method: as §3, §4, §5, §6

MDA-MD-157 = assay: Cell death IC50, Annexin V-FITC/PI flow cytometry; format: cell-based; conditions: Homo sapiens, 96 h, read-out: IC50 MDA-MD-157
Method: as §3, §4, §5, §6

Zr75.1 = assay: Cell death IC50, Annexin V-FITC/PI flow cytometry; format: cell-based; conditions: Homo sapiens, ZR-75-1, 72 h, read-out: IC50 Zr75.1
Method: as §3, §4, §5, §6

HMLER GFP = assay: Cell death IC50, Annexin V-FITC/PI flow cytometry; format: cell-based; conditions: Homo sapiens; 1rst sensibility (72 h)
Method: as §3, §4, §5, §6

MCF-7 = assay: Cell death IC50, Annexin V-FITC/PI flow cytometry; format: cell-based; conditions: Homo sapiens, MCF7, 72 h, read-out: IC50 MCF-7
Method: as §3, §4, §5, §6

HBL100 = assay: Cell death IC50, Annexin V-FITC/PI flow cytometry; format: cell-based; conditions: Homo sapiens, HBL-100, read-out: IC50 HBL100
Method: as §3, §4, §5, §6

BT549 = assay: Cell death IC50, Annexin V-FITC/PI flow cytometry; format: cell-based; conditions: Homo sapiens, BT-549, 108 h, read-out: IC50 BT549
Method: as §3, §4, §5, §6

BT474 = assay: Cell death IC50, Annexin V-FITC/PI flow cytometry; format: cell-based; conditions: Homo sapiens, BT-474, 96 h, read-out: IC50 BT474
Method: as §3, §4, §5, §6

SW620 = assay: Cell death IC50, Annexin V-FITC/PI flow cytometry; format: cell-based; conditions: Homo sapiens, SW-620, 108 h, read-out: IC50 SW620
Method: as §3, §4, §5, §6
(§7) The SW620 and SW480 cell lines are from colon tumors.

SW480 = assay: Cell death IC50, Annexin V-FITC/PI flow cytometry; format: cell-based; conditions: Homo sapiens, SW480, 108 h, read-out: IC50 SW480
Method: as §3, §4, §5, §6, §7

HMLER CD24− cells [2] = assay: Cell proliferation and formation of mammospheres; format: cell-based, Human
From the text: FIG. 2 is a representative phase contrast photomicrographs of mammospheres formed after 11 days in the absence of any added compound (Control) or in the presence of a defined amount of salinomycine, AM5, AM9 or AM13. […] The size of the mammospheres is correlated with progenitor cell proliferation, whereas the number of mammospheres formed after serial passages at clonal density is correlated with the self-renewal capacity of primitive Cancer Stem Cells. […]
FIG. 9 represents images of the third generation of mammospheres formed from individual HMLER CD24low cells treated during 7 days with the indicated drug. The size of the mammospheres is correlated with progenitor cell proliferation capacity, whereas the number of mammospheres formed after serial passages at clonal density is correlated with the self-renewal capacity of primitive Cancer Stem Cells.
AM5, AM9, AM13 and salinomycine were assessed for their capability to inhibit cell proliferation and formation of mammospheres. […]
AM5 and AM23 and salinomycine were assessed for their capability to inhibit cell proliferation and formation of mammospheres.

[3] = third generation of mammospheres, HMLER CD24low cells treated 7 days

**Q.** Which results are given for `CCC(C(=O)O)[C@H]1CC[C@H](C)C([C@@H](C)[C@H](O)[C@H](C)C(=O)[C@H](CC)[C@H]2O[C@]3(C=C[C@@H](NC4CC4)[C@]4(CC[C@@](C)([C@H]5CC[C@](O)(CC)[C@H](C)O5)O4)O3)[C@H](C)C[C@@H]2C)O1` (some centres unmarked) [AM23, Sal-cyclopropylamine]?
**A.** IC50 (HMLER CD24+ cells): 1200 nM; IC50 (HMLER CD24− cells [1]; Homo sapiens, read-out: IC50 CD24−): 43 nM; activity against CD24 cells compared with salinomycine (HMLER CD24− cells [1]; comparison of the IC50 results): significantly improved activity; ROS induction (HMLER CD24low cells): induces ROS; death of MDA-MB-231 cells in combination with cathepsine B inhibition (MDA-MB-231 cells): combine themselves to induce the death; IC50 (MDA-MB-361): 1000 nM; IC50 (HMLER CD24low): < 30 nM; IC50 (MDA-MB-231): > 1000 nM; IC50 (MDA-MB-134): > 1000 nM; IC50 (HMLER shECAD): 30 nM; IC50 (T47D): > 1000 nM; IC50 (HMLE W2): 1000 nM; IC50 (HMLER ID2): < 30 nM; IC50 (BT20): 30 to 500 nM; IC50 (MDA-MD-157): 30 to 500 nM; IC50 (Zr75.1): 30 to 500 nM; IC50 (HMLER GFP): 30 nM; IC50 (MCF-7): 30 to 500 nM; IC50 (HBL100): > 1000 nM; IC50 (BT549): > 1000 nM; IC50 (BT474): > 1000 nM; IC50 (SW620): 30 to 500 nM; IC50 (SW480): 30 to 500 nM; inhibition of cell proliferation, efficacy in comparison with salinomycine (HMLER CD24− cells [2]; at 30 nM): ten-fold improved efficacy; number of mammospheres (HMLER CD24− cells [2]; [3]): reduced the number of mammospheres; size of mammospheres (HMLER CD24− cells [2]; [3]): reduced by the highest dose
